Laboratory results as given in US12122756B2, “Biflavone compound against I-type herpes simplex virus, and preparation method therefor and use thereof” (priority 2022, dated 2024).

Test system: HSV-I
Test: Action mode: inhibitory effect on HSV-I adsorption (CPE, CCK-8)
Format: cell-based, Herpes simplex virus type I
Method: (1) The inhibitory effect of drugs on HSV-I adsorption: Vero cells were seeded in a 96-well plate and grew into a monolayer, before pretreatment with different concentrations of samples. Then, HSV-I virus solution was added at 100 μl/well, followed by incubation for 1 hour. Finally, the cell maintenance solution was replaced, and the cells were further cultured. After 72 hours, the effect on the adsorption of virus was determined using the CCK-8 method.

## COc1c(O)c(Cc2c(O)c(OC)c(O)c3c(=O)c(-c4ccc(O)c(S(=O)(=O)[O-])c4)coc23)c2occ(-c3ccc(O)c(S(=O)(=O)[O-])c3)c(=O)c2c1O.[Na+].[Na+] [Compound 2, 8,8″-methylene-di-(sodiumtectorigenin-5′-sulphonate)]
5.97 μg/ml, n = 6
  Effect on viral adsorption: OD value: 0.24 ± 0.03
11.94 μg/ml, n = 6
  Effect on viral adsorption: OD value: 0.23 ± 0.05
23.88 μg/ml, n = 6
  Effect on viral adsorption: OD value: 0.24 ± 0.04
47.45 μg/ml, n = 6
  Effect on viral adsorption: OD value: 0.25 ± 0.04
95.50 μg/ml, n = 6
  Effect on viral adsorption: OD value: 0.26 ± 0.06
191.00 μg/ml, n = 6
  Effect on viral adsorption: OD value: 0.25 ± 0.06
382.00 μg/ml, n = 6
  Effect on viral adsorption: OD value: 0.24 ± 0.06
CPE method
  inhibitory effect on viral adsorption (in words): almost no inhibitory effect
Human alphaherpesvirus 1, 5.97 μg/ml, n = 6, read-out: Effect on viral adsorption: Inhibition rate (%)
  inhibition at 5.97 µg/mL: 4.97%
Human alphaherpesvirus 1, 11.94 μg/ml, n = 6, read-out: Effect on viral adsorption: Inhibition rate (%)
  inhibition at 11.94 µg/mL: 4.83%
Human alphaherpesvirus 1, 23.88 μg/ml, n = 6, read-out: Effect on viral adsorption: Inhibition rate (%)
  inhibition at 23.88 µg/mL: 5.22%
Human alphaherpesvirus 1, 47.45 μg/ml, n = 6, read-out: Effect on viral adsorption: Inhibition rate (%)
  inhibition at 47.45 µg/mL: 6.97%
Human alphaherpesvirus 1, 95.50 μg/ml, n = 6, read-out: Effect on viral adsorption: Inhibition rate (%)
  inhibition at 95.5 µg/mL: 7.33%
Human alphaherpesvirus 1, 191.00 μg/ml, n = 6, read-out: Effect on viral adsorption: Inhibition rate (%)
  inhibition at 191 µg/mL: 6.16%
Human alphaherpesvirus 1, 382.00 μg/ml, n = 6, read-out: Effect on viral adsorption: Inhibition rate (%)
  inhibition at 382 µg/mL: 5.39%
